# Measured values published in patent publication US20200288711A1, “Pyrimidin-4-Carbamate or Urea Derivatives As Herbicides” (Syngenta Participations AG, priority 2017, published 2020).
# Columns and labels:
# Type in all cases: in vivo
# Setaria faberi (SETFA) [1] = assay: B1 pre-emergence herbicidal activity; design: key to Pre-emergence herbicidal activity, SETFA: 5=total damage to plant; 0=no damage to plant; conditions: rate 1000 g/ha, evaluated after 13 days, score 0-5 (5=total damage, 0=no damage); for Pre-emergence herbicidal activity, SETFA: Test 1b
# Description: (§1) Seeds of a variety of test species were sown in standard soil in pots: Triticum aestivium (TRZAW), Avena fatua (AVEFA), Alopecurus myosuroides (ALOMY), Echinochloa crus-galli (ECHCG), Lolium perenne (LOLPE), Zea mays (ZEAMX), Abutilon theophrasti (ABUTH), Amaranthus retroflexus (AMARE) and Setaria faberi (SETFA). After cultivation for one day (pre-emergence) under controlled conditions in a glasshouse (at 24/16° C., day/night; 14 hours light; 65% humidity), the plants were sprayed with an aqueous spray solution derived from the formulation of the technical active ingredient in acetone/water (50:50) solution containing 0.5% Tween 20 (polyoxyethelyene sorbitan monolaurate, CAS RN 9005-64-5). The test plants were then grown in a glasshouse under controlled conditions (at 24/16° C., day/night; 14 hours light; 65% humidity) and watered twice daily. After 13 days, the test was evaluated (5=total damage to plant; 0=no damage to plant).
# [2] = system: Abutilon theophrasti (ABUTH); assay: B2 post-emergence herbicidal activity; conditions: Test 2a, rate 1000 g/ha, evaluated after 13 days, score 0-5 (5=total damage, 0=no damage)
# Description: (§2) Seeds of a variety of test species were sown in standard soil in pots: Triticum aestivium (TRZAW), Avena fatua (AVEFA), Alopecurus myosuroides (ALOMY), Echinochloa crus-galli (ECHCG), Lolium perenne (LOLPE), Zea mays (ZEAMX), Abutilon theophrasti (ABUTH), Amaranthus retroflexus (AMARE) and Setaria faberi (SETFA). After 8 days cultivation (post-emergence) under controlled conditions in a glasshouse (at 24/16° C., day/night; 14 hours light; 65% humidity), the plants were sprayed with an aqueous spray solution derived from the formulation of the technical active ingredient in acetone/water (50:50) solution containing 0.5% Tween 20 (polyoxyethelyene sorbitan monolaurate, CAS RN 9005-64-5). The test plants were then grown in a glasshouse under controlled conditions (at 24/16° C., day/night; 14 hours light; 65% humidity) and watered twice daily. After 13 days, the test was evaluated (5=total damage to plant; 0=no damage to plant).
# [3] = system: Echinochloa crus-galli (ECHCG); assay: B1 pre-emergence herbicidal activity; design: key to Pre-emergence herbicidal activity, ECHCG: 5=total damage to plant; 0=no damage to plant; conditions: rate 1000 g/ha, evaluated after 13 days, score 0-5 (5=total damage, 0=no damage); for Pre-emergence herbicidal activity, ECHCG: Test 1b
# Description: as §1
# Zea mays (ZEAMX) [4] = assay: B1 pre-emergence herbicidal activity; design: key: 5=total damage to plant; 0=no damage to plant; conditions: Test 1a, rate 1000 g/ha, evaluated after 13 days, score 0-5 (5=total damage, 0=no damage)
# Description: as §1
# Lolium perenne (LOLPE) [5] = assay: B1 pre-emergence herbicidal activity; design: key: 5=total damage to plant; 0=no damage to plant; conditions: rate 1000 g/ha, evaluated after 13 days, score 0-5 (5=total damage, 0=no damage); for Pre-emergence herbicidal activity, LOLPE: Test 1b
# Description: as §1
# [6] = system: Abutilon theophrasti (ABUTH); assay: B1 pre-emergence herbicidal activity; design: key: 5=total damage to plant; 0=no damage to plant; conditions: Test 1a, rate 1000 g/ha, evaluated after 13 days, score 0-5 (5=total damage, 0=no damage)
# Description: as §1
# [7] = system: Amaranthus retroflexus (AMARE); assay: B1 pre-emergence herbicidal activity; design: key: 5=total damage to plant; 0=no damage to plant; conditions: Test 1a, rate 1000 g/ha, evaluated after 13 days, score 0-5 (5=total damage, 0=no damage)
# Description: as §1
# Zea mays (ZEAMX) [8] = assay: B2 post-emergence herbicidal activity; design: key: 5=total damage to plant; 0=no damage to plant; conditions: Test 2a, rate 1000 g/ha, evaluated after 13 days, score 0-5 (5=total damage, 0=no damage)
# Description: as §2
# Setaria faberi (SETFA) [9] = assay: B2 post-emergence herbicidal activity; design: key: 5=total damage to plant; 0=no damage to plant; conditions: rate 1000 g/ha, evaluated after 13 days, score 0-5 (5=total damage, 0=no damage)
# Description: as §2
# Lolium perenne (LOLPE) [10] = assay: B2 post-emergence herbicidal activity; design: key: 5=total damage to plant; 0=no damage to plant; conditions: rate 1000 g/ha, evaluated after 13 days, score 0-5 (5=total damage, 0=no damage)
# Description: as §2
# [11] = system: Echinochloa crus-galli (ECHCG); assay: B2 post-emergence herbicidal activity; design: key: 5=total damage to plant; 0=no damage to plant; conditions: rate 1000 g/ha, evaluated after 13 days, score 0-5 (5=total damage, 0=no damage)
# Description: as §2
# [12] = system: Amaranthus retroflexus (AMARE); assay: B2 post-emergence herbicidal activity; design: key: 5=total damage to plant; 0=no damage to plant; conditions: Test 2a, rate 1000 g/ha, evaluated after 13 days, score 0-5 (5=total damage, 0=no damage)
# Description: as §2
# Avena fatua (AVEFA) [13] = assay: B1 pre-emergence herbicidal activity; design: key: 5=total damage to plant; 0=no damage to plant; conditions: Test 1b, rate 1000 g/ha, evaluated after 13 days, score 0-5 (5=total damage, 0=no damage)
# Description: as §1
# [14] = system: Alopecurus myosuroides (ALOMY); assay: B1 pre-emergence herbicidal activity; design: key: 5=total damage to plant; 0=no damage to plant; conditions: Test 1b, rate 1000 g/ha, evaluated after 13 days, score 0-5 (5=total damage, 0=no damage)
# Description: as §1
# [15] = system: Triticum aestivium (TRZAW); assay: B1 pre-emergence herbicidal activity; design: key: 5=total damage to plant; 0=no damage to plant; conditions: Test 1b, rate 1000 g/ha, evaluated after 13 days, score 0-5 (5=total damage, 0=no damage)
# Description: as §1
# Avena fatua (AVEFA) [16] = assay: B2 post-emergence herbicidal activity; design: key: 5=total damage to plant; 0=no damage to plant; conditions: Test 2b, rate 1000 g/ha, evaluated after 13 days, score 0-5 (5=total damage, 0=no damage)
# Description: as §2
# [17] = system: Alopecurus myosuroides (ALOMY); assay: B2 post-emergence herbicidal activity; design: key: 5=total damage to plant; 0=no damage to plant; conditions: Test 2b, rate 1000 g/ha, evaluated after 13 days, score 0-5 (5=total damage, 0=no damage)
# Description: as §2
# [18] = system: Triticum aestivium (TRZAW); assay: B2 post-emergence herbicidal activity; design: key: 5=total damage to plant; 0=no damage to plant; conditions: Test 2b, rate 1000 g/ha, evaluated after 13 days, score 0-5 (5=total damage, 0=no damage)
# Description: as §2
SMILES,"Pre-emergence herbicidal activity, SETFA (Setaria faberi (SETFA) [1])","Pre-emergence herbicidal activity, ECHCG [3]","Pre-emergence herbicidal activity, LOLPE (Lolium perenne (LOLPE) [5])","Pre-emergence herbicidal activity, AVEFA (Avena fatua (AVEFA) [13])","Pre-emergence herbicidal activity, ALOMY [14]","Pre-emergence herbicidal activity, TRAZW [15]","Control of weed species after post-emergence application, SETFA (Setaria faberi (SETFA) [9]; Test 2b)","Control of weed species after post-emergence application, LOLPE (Lolium perenne (LOLPE) [10]; Test 2b)","Control of weed species after post-emergence application, ECHCG ([11]; Test 2b)","Control of weed species after post-emergence application, AVEFA (Avena fatua (AVEFA) [16])","Control of weed species after post-emergence application, ALOMY [17]","Control of weed species after post-emergence application, TRAZW [18]",other results
"Cc1nc(-c2cncc(F)c2)ncc1NC(=O)OC(C)(C)C [Compound E1, tert-butyl N-[2-(5-fluoro-3-pyridyl)-4-methyl-pyrimidin-5-yl]carbamate]",,,,,,,,,,,,,"Control of weed species after pre-emergence application, SETFA (Setaria faberi (SETFA) [1]; Test 1a): 4; Control of weed species after post-emergence application, ABUTH [2]: 1; Control of weed species after pre-emergence application, ECHCG ([3]; Test 1a): 4; Control of weed species after pre-emergence application, ZEAMX (Zea mays (ZEAMX) [4]): 5; Control of weed species after pre-emergence application, LOLPE (Lolium perenne (LOLPE) [5]; Test 1a): 1; Control of weed species after pre-emergence application, ABUTH [6]: 0; Control of weed species after pre-emergence application, AMARE [7]: 0; Control of weed species after post-emergence application, ZEAMX (Zea mays (ZEAMX) [8]): 5; Control of weed species after post-emergence application, SETFA (Setaria faberi (SETFA) [9]; Test 2a): 5; Control of weed species after post-emergence application, LOLPE (Lolium perenne (LOLPE) [10]; Test 2a): 2; Control of weed species after post-emergence application, ECHCG ([11]; Test 2a): 4; Control of weed species after post-emergence application, AMARE [12]: 2"
"CC(C)OC(=O)Nc1cnc(-c2cncc(F)c2)nc1C(F)(F)F [Compound E14, isopropyl N-[2-(5-fluoro-3-pyridyl)-4-(trifluoromethyl)pyrimidin-5-yl]carbamate]",5,3,0,1,0,0,5,3,4,3,0,1,
CC(C)COC(=O)Nc1cnc(-c2cncc(F)c2)nc1C(F)(F)F [Compound E15],5,5,1,2,0,0,5,3,5,4,1,2,
O=C1OCCN1c1cnc(-c2cncc(F)c2)nc1C(F)(F)F [Compound E17],4,3,0,0,0,0,4,1,3,2,0,1,
CCC(C)OC(=O)Nc1cnc(-c2cncc(F)c2)nc1C(F)(F)F (stereo not drawn) [Compound E18],5,2,0,1,0,1,5,1,4,1,0,0,
CCOC(=O)Nc1cnc(-c2cncc(F)c2)nc1C(F)(F)F [Compound E19],4,3,1,0,0,0,5,3,5,3,0,1,
CC(C)(C)OC(=O)Nc1cnc(-c2cncc(F)c2)nc1OCc1ccccc1 [Compound E20],0,0,0,0,0,0,1,0,0,0,0,0,
COC(=O)Nc1cnc(-c2cncc(F)c2)nc1C(F)(F)F [Compound E21],4,3,0,0,1,1,4,2,5,4,1,1,
CC(C)OC(=O)N(C(=O)OC(C)C)c1cnc(-c2cncc(F)c2)nc1C(F)(F)F [Compound E22],4,3,0,0,0,0,1,4,5,0,0,4,
